Measured values: patent US9066949B2, “Compositions and methods for the treatment of catatonia” (priority 2011, dated 2015)

Experiments:
[1] = tested on: clinical effects of ketamine, an NMDA receptor antagonist; conditions: in vivo; cited from earlier work
[2] = on average, subjects with schizophrenic disorders; cited from earlier work
[3] = tested on: catatonic features; experiment: Bush-Francis Catatonia Rating Scale (BFCRS) assessment of patients before and after treatment; format: in vivo, human
Description: This assessment tool, in conjunction with clinical observation, can be used to identify the severity of catatonia and track improvements with medication adjustments. Studies discussed herein focused on subjects in both secure and nonsecure residential settings.

Structure (SMILES): CN1CCN(C2=Nc3cc(Cl)ccc3Nc3ccccc32)CC1 [clozapine, 8-chloro-11-(4-methylpiperazin-1-yl)-5H-dibenzo[b,e][1,4]diazepine]
- effect on the clinical effects of ketamine [1]: reverse the clinical effects of ketamine
- blood levels needed to achieve greater clinical efficacy [2]: ≥ 400 ng/dL

Structure (SMILES): O=C(CCCN1CCC(O)(c2ccc(Cl)cc2)CC1)c1ccc(F)cc1 [haloperidol]
- effect on the clinical effects of ketamine [1]: do not impact the effects of ketamine

Structure (SMILES): Nc1nnc(-c2cccc(Cl)c2Cl)c(N)n1 [lamotrigine]
- treatment response ([3]; 10 out of 14 schizophrenic patients with catatonic features, non-secure settings, antipsychotic, lamotrigine, in some cases a benzodiazepine): marked treatment response
- effect of lamotrigine alone on catatonic features ([3]; administration of lamotrigine alone): reduces catatonic features
- effect on catatonic features at lowest dose ([3]; as little as 25 mg per day): meaningful reduction in catatonic features
- effect on catatonic features as the amount of lamotrigine was increased ([3]; in some instances): complete remission of catatonic features
- subjects who responded ([3]; of 20 confirmed cases of catatonia in secure residential settings, clozapine monotherapy with subsequent augmentation with lamotrigine): 11
- BFCRS score after treatment ([3]; one patient, reduced from 14, olanzapine plan later augmented with lamotrigine): 0
- follow up BFCRS score ([3]; one subject, non-secure setting, original BFCRS score 31, poor responder to clozapine and lorazepam, after augmentation with lamotrigine): 0
- BFCRS score after treatment ([3]; one subject, secure residential setting, dropped from 17, 3 weeks after starting the combination therapy): 11
- response at full dosage ([3]; titrated to a full dosage of 200 mg twice per day, paired with an antipsychotic): maximal responses
- effect on the clinical effects of ketamine [1]: reverse the clinical effects of ketamine

Structure (SMILES): Cc1cc2c(s1)Nc1ccccc1N=C2N1CCN(C)CC1 [olanzapine, 2-methyl-4-(4-methyl-1-piperazinyl)-10H-thieno[2,3-b][1,5]benzodiazepine]
- effect on the clinical effects of ketamine [1]: reverse the clinical effects of ketamine

Structure (SMILES): Cc1nc2n(c(=O)c1CCN1CCC(c3noc4cc(F)ccc34)CC1)CCCC2 [risperidone]
- effect on the clinical effects of ketamine [1]: do not impact the effects of ketamine
